Data published in patent US11215608B2, “Methods of determining cellular chemosensitivity” (Dana-Farber Cancer Institute, Inc., priority 2006, dated 2022).

Tests used:
leukemic mitochondria = assay: Cytochrome c release from BCL-2 dependent leukemia mitochondria; assay type: biochemical, mouse
Protocol: (§1) Mitochondria were purified from liver and FL5.12cells as previously described (Letai et al., 2002). Mitochondria were purified from leukemia cells and 2B4 cells as previously described for FL5.12 cells. Mitochondria were incubated with treatments for 45 (mouse liver mitochondria) or 35 minutes (FL5.12, 2B4, and leukemic mitochondria). Release of cytochrome c was determined by a comparison of cytochrome c in the pellet and supernatant following treatment, quantitated by ELISA (R&D systems). When results of multiple experiments were averaged, results from solvent-only (DMSO) treatments values were subtracted from each, so that 0 release reflects that observed in solvent-only treatments.
Leukemia prone mice were generated as previously described (Letai, 2004). Mouse experimental protocols conform to the relevant regulatory standards and were approved by the Dana-Farber Cancer Institute Animal Care and Use Committee.
Previous results have described a mouse acute lymphocytic leukemia model in which c-myc is constitutively expressed and human BCL-2 is repressibly expressed. In this model, when BCL-2 transgene expression is eliminated by administration of doxycycline, the leukemic cells undergo apoptosis, resulting in rapid resolution of the leukemia (Letai, 2004). This provides an ideal in vivo model of a BCL-2 dependent cancer. It was hypothesized that dependence on BCL-2 was due to a similar mechanism to that of the IL-3 deprived FL5.12-BCL-2 cells—that is, a death signal was being initiated and carried by an activator BH3 molecule, but BCL-2 was binding it and preventing its interaction with multidomain proapoptotic proteins.
Mitochondria were isolated from leukemia cells and exposed to sensitizer BH3 peptides. Subsequently, cytochrome c release was measured. As an internal control, mitochondria were isolated from liver from the leukemic mice in parallel (FIG. 8A).

SU-DHL6 = assay: BH3 profiling, cytochrome c release from lymphoma mitochondria; assay type: biochemical; conditions: SU-DHL 6
Excerpt: (§2) BH3 profiling allows for the prediction of response of cancer cells to anti-cancer therapeutics. For the purposes of this application, therapeutics can be divided into those that target anti-apoptotic BCL-2 proteins, and conventional agents. As a model test system, four lymphoma cell lines SU-DHL4, SU-DHL6, SU-DHL8, and SU-DHL 10 were employed. To perform BH3 profiling, the ability of a panel of sensitizer peptides to induce mitochondrial outer membrane permeabilization (MOMP) in mitochondria isolated from the lymphoma cells were tested. […] MOMP was measured by quantifying cytochrome c release by ELISA.
SU-DHL4 and SU-DHL6 a “primed” phenotype, based on the sensitivity to sensitizer BH3 peptides. […] SU-DHL-10 responded poorly to both sensitizer and activator peptides, indicating the loss of the effector arm.

SU-DHL8 = assay: as above; assay type: biochemical; conditions: SU-DHL-8
Excerpt: as §2

mouse liver mitochondria = assay: Cytochrome c release from mouse liver mitochondria; assay type: biochemical; conditions: no tBID, also at 10-fold higher concentrations
Protocol: as §1
To test if selective binding corresponded to ability of individual BH3 domains to selectively antagonize antiapoptotic function, a purified mitochondrial system was constructed in which the critical apoptosis decision making molecular machinery was reconstituted. […] The multidomain proapoptotic function was provided by the BAK which resides in mouse liver Mitochondria; mouse liver mitochondria contain no detectable BAX protein (Letai et al., 2002). The dominant antiapoptotic function was provided by one of the five different recombinant antiapoptotic proteins used in the binding assays. BH3 peptides provided the sensitizer function.
Furthermore, when the panel of sensitizer BH3 peptides was tested in the presence of the antiapoptotic protein BCL-XL, there was still no cytochrome c release, formally ruling out the possibility that the BH3 peptides were somehow directly converting antiapoptotic proteins to a proapoptotic function (FIG. 2). To induce MOMP and cytochrome c release, there appears to be an absolute requirement for an activator function, here provided by the tBID protein.

CLL mitochondria = assay: Cytochrome c release from CLL mitochondria; assay type: biochemical, human; conditions: peptides or compounds 100 μM
Protocol: Alternatively, mitochondria were purified from freshly isolated CLL cells and cell lines by mechanical disruption followed by differential centrifugation, as previously described (Letai et al., 2002). Mitochondrial suspensions were made at 0.5 mg protein/ml, except for the case of ABT-737 and negative control enantiomer treatments, where 0.1 mg/ml was used. Release of cytochrome c was determined by a comparison of cytochrome c in the pellet and supernatant quantitated by ELISA (R&D systems).
CLL mitochondria were incubated with BH3 peptides as well as ABT-737 and negative control enantiomer (FIG. 14). […] This pattern is diagnostic of mitochondrial BCL-2 dependence. […] Since the BH3 peptides in the sensitizer panel lack the ability to directly activate BAX and BAK, these experiments also implicated the presence of an activator molecule constitutively sequestered by BCL-2 in CLL.

[1] = test system: FLAG-MCL-1-transfected 2B4 cells; assay: BH3 peptides electroporated into dexamethasone-treated FLAG-MCL-1 2B4 cells; assay type: cell-based, murine; conditions: peptide transfected by electroporation
Excerpt: Percent killing was ascertained by Annexin-V staining. […] N=3 and the error bars represent the standard deviation.

GST-MCL-1 = target: T1, GST-MCL-1 (Homo sapiens, UniProt Q07820); assay: BIM BH3 displacement by fluorescence polarization; assay type: binding; conditions: 25 nM fluorescein-linked BIM BH3, 0.1 uM GST-MCL-1
T1 construct: In each case, the C-terminus transmembrane domain was truncated to maintain solubility in aqueous solution; made in house; host or cells: bacteria (construct a gift of Tilman Oltersdorf)
T1 sequence (Q07820 1-327): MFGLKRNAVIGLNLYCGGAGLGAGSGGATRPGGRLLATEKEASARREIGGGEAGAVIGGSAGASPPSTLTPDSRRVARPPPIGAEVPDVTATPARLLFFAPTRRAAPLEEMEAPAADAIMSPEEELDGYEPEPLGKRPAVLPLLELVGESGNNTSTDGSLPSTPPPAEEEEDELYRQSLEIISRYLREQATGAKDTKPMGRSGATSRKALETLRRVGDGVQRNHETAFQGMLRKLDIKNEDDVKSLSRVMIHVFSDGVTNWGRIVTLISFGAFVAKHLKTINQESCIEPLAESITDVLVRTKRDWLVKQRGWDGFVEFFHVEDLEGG
Protocol: (§3) Binding assays were performed using fluorescence polarization as previously described (Letai et al., 2002). A minimum of three independent experiments were used to determine each dissociation constant.
(§4) As one test of this hypothesis, the ability of sensitizer peptides to displace tBID from antiapoptotic protein Bcl-w was examined utilizing a GST-pulldown assay. Proteins bound to glutathioneagarose beads were eluted with glutathione and analyzed by Western blot. In FIG. 3A, tBID is displaced from BC1-w by sensitizer BH3 peptides in a pattern that replicates the pattern in FIG. 1D. […] These experiments support the ability of sensitizer BH3 peptides to displace activators from the antiapoptotic binding cleft.

BAX = BAX oligomerization / activation in mitochondria of IL-3 starved FL5.12-BCL-2 cells; assay type: biochemical, murine; conditions: peptides 30 uM, ABT-737 10 uM, 35 minutes
Protocol: Mitochondria were isolated from wt FL5.12 cells and FL5.12-BCL-2 cells in the presence of IL-3, and from FL5.12-BCL-2 cells following 24 hours of IL-3 deprivation. […] Mitochondrial pellets were subjected to chemical crosslinking as previously described (Letai et al., 2002).
This model predicts that BCL-2 acts upstream of BAX activation by intercepting activator BH3 molecules. To test this prediction, in FIG. 6E, immunoprecipitation was performed with an antibody that recognizes only the activated form of BAX which exposes an N-terminus epitope (Desagher ct al., 1999; Hsu and You le, 1997). wt or BCL-2 expressing FL5.12 cells were exposed to IL-3 withdrawal as indicated.

GST-BCL-2 = target: T2, GST-BCL-2 (Homo sapiens, UniProt P10415); assay: BIM BH3 displacement by fluorescence polarization; assay type: binding; conditions: 25 nM fluorescein-linked BIM BH3, 0.5 uM GST-BCL-2
T2 construct: In each case, the C-terminus transmembrane domain was truncated to maintain solubility in aqueous solution; made in house; host or cells: bacteria
T2 sequence (P10415 1-218 limits assumed): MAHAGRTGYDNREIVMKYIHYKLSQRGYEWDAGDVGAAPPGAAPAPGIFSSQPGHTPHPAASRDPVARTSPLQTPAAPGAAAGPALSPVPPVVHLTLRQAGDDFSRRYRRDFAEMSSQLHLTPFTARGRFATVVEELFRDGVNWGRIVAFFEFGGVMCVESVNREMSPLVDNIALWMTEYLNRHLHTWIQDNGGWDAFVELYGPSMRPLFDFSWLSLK
Protocol: as §3, §4

[2] = test system: SU-DHL4, SU-DHL6, SU-DHL8, SU-DHL 10; assay: Lymphoma cell line sensitivity to agents; assay type: cell-based; conditions: four lymphoma cell lines compared
Protocol: Only cells that are dependent on BCL-2 for survival are predicted to respond to BCL-2 antagonists like ABT-737. […] To test this, cells were treated with vincristine.

displacement of BIM BH3 from MCL-1 (GST-MCL-1) | Molecule | cytochrome c release (leukemic mitochondria) | mitochondrial sensitivity to BH3 peptide (SU-DHL6) | mitochondrial sensitivity to BH3 peptide (SU-DHL8) | cytochrome c release by peptide alone (mouse liver mitochondria) | cytochrome c release (CLL mitochondria) | percent killing by Annexin-V staining [1] | BAX oligomerization (BAX) | displacement of BIM BH3 from BCL-2 (GST-BCL-2) | cell sensitivity to the agent [2]
– | CC[C@H](C)[C@H](NC(=O)[C@H](CCC(=O)O)NC(=O)[C@H](CCCNC(=N)N)NC(=O)[C@H](C)NC(=O)[C@H](Cc1c[nH]c2ccccc12)NC(=O)[C@H](CCC(N)=O)NC(=O)[C@H](CCC(=O)O)NC(=O)CCCCCNC(=S)Nc1ccc2c(c1)C(=O)OC21c2ccc(O)cc2Oc2cc(O)ccc21)C(=O)NCC(=O)N[C@@H](C)C(=O)N[C@@H](CCC(N)=O)C(=O)N[C@@H](CC(C)C)C(=O)N[C@@H](CCCNC(=N)N)C(=O)N[C@@H](CCCNC(=N)N)C(=O)N[C@@H](CCSC)C(=O)N[C@@H](C)C(=O)N[C@@H](CC(=O)O)C(=O)N[C@@H](CC(=O)O)C(=O)N[C@@H](CC(C)C)C(=O)N[C@@H](CC(N)=O)C(=O)N[C@@H](C)C(=O)O [PUMA] | capable of inducing near total cytochrome c release | strong | limited response | none of the sensitizer BH3 peptides by themselves can induce cytochrome c release significantly above background | induce cytochrome c release | – | – | – | –
efficiently displaces BIM from MCL-1 | BH3 domain peptide of murine NOXA, AELPPEFAAQLRKIGDKVYC (SEQ ID NO: 6) [NOXA A] | – | weaker, but definite, response | – | none of the sensitizer BH3 peptides by themselves can induce cytochrome c release significantly above background | do not | significantly greater than that with BAD | – | – | –
– | CSCC[C@H](NC(=O)[C@H](CCCNC(=N)N)NC(=O)[C@H](CCCNC(=N)N)NC(=O)[C@H](CC(C)C)NC(=O)[C@H](CCC(=O)O)NC(=O)[C@H](CCCNC(=N)N)NC(=O)CNC(=O)[C@H](Cc1ccc(O)cc1)NC(=O)[C@H](CCCNC(=N)N)NC(=O)[C@H](CCC(N)=O)NC(=O)[C@H](C)NC(=O)[C@H](C)NC(=O)[C@H](Cc1c[nH]c2ccccc12)NC(=O)[C@H](CC(C)C)NC(=O)CCCCCNC(=S)Nc1ccc2c(c1)C(=O)OC21c2ccc(O)cc2Oc2cc(O)ccc21)C(=O)N[C@@H](CO)C(=O)N[C@@H](CC(=O)O)C(=O)N[C@@H](CCC(=O)O)C(=O)N[C@@H](Cc1ccccc1)C(=O)N[C@@H](CCC(=O)O)C(=O)NCC(=O)N[C@@H](CO)C(=O)N[C@@H](Cc1ccccc1)C(=O)N[C@@H](CCCCN)C(=O)NCC(=O)N[C@@H](CC(C)C)C(=O)O [BAD] | capable of inducing near total cytochrome c release | weaker, but definite, response | – | none of the sensitizer BH3 peptides by themselves can induce cytochrome c release significantly above background | induce cytochrome c release | – | results in BAX oligomerization | efficiently displaces BIM BH3 from BCL-2 | –
– | CC[C@]1(O)C[C@H]2CN(CCc3c([nH]c4ccccc34)[C@@](C(=O)OC)(c3cc4c(cc3OC)N(C=O)[C@H]3[C@@](O)(C(=O)OC)[C@H](OC(C)=O)[C@]5(CC)C=CCN6CC[C@]43[C@@H]65)C2)C1 [vincristine] | – | – | – | – | – | – | – | – | SU-DHL4 and SU-DHL6 were the most sensitive cell lines
